Read-outs that look alike come from different tables or passages of the source.
Columns and labels:
[1] = in vivo; details: male, beagle, dog, 70 μg/knee/week
[2] = system: CBFβ; assay: CBFβ nuclear localization in hMSCs (Western blotting); assay type: cell-based, human; details: hMSCs, 1, 10 and 100 nM, 1 hour
Procedure: Primary human MSCs were obtained from Cell Applications. The hMSCs were grown in Mesenchymal Stem Cell expansion media and used between passage 2 and 8 for all experiments. Nuclear cell lysate fractionation and western blotting
The cells were scraped off the dishes mechanically, and pipetted gently to break the cell debris. The cell lysate was centrifuged at 2000 rpm at 4° C. for 5 min and the supernatant was saved as the cytosolic fraction. The pellet was washed with washing buffer (20 mM HEPES, pH 7.9, 20% glycerol, 0.2 mM EDTA, 1 mM DTT and protease inhibitor cocktail) once and centrifuged at 2000 rpm for 5 min. The supernatant was discarded, the pellets were suspended in nuclear extraction buffer (2 mM HEPES, pH7.9, 400 mM NaCl, 20% glycerol, 0.2 mM EDTA, 1 mM DTT and protease inhibitor cocktail) and then incubated on ice for 45 min. The mixture was centrifuged at 13,000 rpm for 15 min at 4° C., and the supernatant was saved as nuclear fraction.
Proteins were resolved using SDS-PAGE gel electrophoresis, transferred to a PVDF membrane using semi-dry blotting cell. The membrane was blocked in blocking buffer (LiCor) for 1 hr at room temperature, followed by incubation with primary antibody in blocking buffer at 4° C. overnight. […]

[3] = Intra-articular single dose pharmacokinetics study in rat; assay type: in vivo; details: for concentration in the knee: 1.05 μg/knee
[4] = system: Rat Medial Meniscal Tear Model; assay: Effect of dose frequency of compound A in a rat medial meniscal tear model; assay type: in vivo, Lewis rats
Procedure: The vehicle was prepared separately, then added to aliquots of compound A powder, and the mixture was then vortexed until it becomes a clear solution. Dosing solutions were prepared for doses of 3.5 and 0.35 μg/kg (100 μM and 10 μM respectively). Dosing volume was set to 30 μL/knee. Dosing solutions were prepared fresh weekly.
Fourteen-week-old male Lewis rats (Charles River, Kingston, N.Y.) were in the weight range of 300-320 g at the start of the study
Rats were sorted based on body weight into 8 study groups of 15 rats. They were surgerized and enrolled in a staggered fashion across one week (20 animals per day for 6 days). Briefly, animals were anesthetized with a ketamine/xylazine cocktail (50 mg/kg Ketaved—Henry Schein, and 5 mg/kg Xyalzine—AniSed respectively) by intraperitoneal injection, administered appropriate analgesics (Flunixin, 5 mg/kg subcutaneous injection), and the surgical site shaved and disinfected. A small incision was made on the medial right hind knee to expose the collateral ligament. The collateral ligament was transected and the joint capsule opened sufficiently to expose the medial meniscus. The meniscus was transected completely, then the skin incision was closed, and pressure applied to the wound to prevent hematoma development. Animals were allowed to recover on a heated blanket and were returned to their home cage. Sham procedures were carried out in a similar fashion, except the medial meniscus was not cut. All surgical procedures were performed aseptically and all procedures were approved by the institute IACUC. Animals were monitored daily for the following week for postoperative care prior to dosing. Any animals with atypical healing (bruising/hematoma) were removed from the study and replaced with spare animals.
Animals were weighed weekly at the time of dosing (8-10 am), and a standardized dose of 30 μl of either vehicle or compound was administered via injection into the intra-articular space according to the regimens outlined above (groups A, B, E and H dosed once weekly, groups C and F dosed every other week, and groups D and G dosed once for the duration of the study). Animals were dosed using a Hamilton syringe with a 27 G needle attached. On study day 28, animals were euthanized, a terminal blood sample collected, and knees were harvested and placed in formalin jars for histology analysis and pathology scoring.
Analysis of the knee joint histology was performed by Bolder BioPATH. A variety of measurements to characterize the lesions were performed to score the joints based on lesion depth, severity, and overall size.

[5] = in vivo; details: Crl:CD(SD), rat
[6] = dog, in vivo
[7] = in vivo; details: dog, iv; for AUC(0-t): AUC0-t
[8] = rat, plasma, 1.05 ug, single IA dose 1.05 μg/knee

Q: For COCCc1ccc(NC(=O)c2ccccc2NS(C)(=O)=O)cc1 [Compound A, N-(4-(2-methoxyethyl)phenyl)-2-(methylsulfonamido)benzamide], which AUC(0-t) [1] is on record?
A: The AUC(0-t) was 13.8 ng·h/mL.

Q: What about the “CBFβ levels in the nuclear fraction” value [2] of the same molecule?
A: Its value is “increase”.

Q: What about the “concentration in the knee” value ([3]; 120 minutes after single IA injection) of the same molecule?
A: The value was “LLQ”.

Q: And the “concentration in the knee” value ([3]; immediately after single IA injection)?
A: Its value is 925.5 ng/mL.

Q: What about the AUC(0-inf) [3, 8] of the same molecule?
A: Its AUC(0-inf) is 33.9 ng·h/mL.

Q: What about the Cmax [3, 8] of the same molecule?
A: Its Cmax is 53.3 ng/mL.

Q: And the half-life ([3]; rat, plasma, 1.05 ug, single IA dose 1.05 μg/knee, read-out: plasma t1/2 (converted))?
A: The half-life was 28.9 min.

Q: What about the “combined cartilage degeneration widths with scores from mild to severe” value ([4]; 10 μM (0.105 μg/knee) IA once every other week, vs vehicle) of the same molecule?
A: Its value is “statistically significant improvement”.

Q: What about the “substantial cartilage degeneration width” value ([4]; 10 μM (0.105 μg/knee) IA once weekly or once every other week, vs vehicle) of the same molecule?
A: Its value is “improvement”.

Q: And the mild-to-severe degeneration widths ([4]; 10 μM (0.105 μg/knee) IA weekly)?
A: Its mild-to-severe degeneration widths is “trend towards a reduction”.

Q: What about the adverse effects ([4]; IA, any dosing schedule (once weekly, once every other week, once per study), 100 μM or 10 μM) of the same molecule?
A: The adverse effects was “no adverse effects”.

Q: What about the “progression of cartilage degeneration” value ([4]; dosing once every four weeks) of the same molecule?
A: Its value is “did not demonstrate an effect”.

Q: And the “width of cartilage lesions where greater than 10% of the cartilage is damaged or lost” value ([4]; dosing once every other week)?
A: The value was “significant reduction”.

Q: What about the “most severe cartilage lesions” value ([4]; not statistically significant) of the same molecule?
A: Its value is “trend towards an improvement”.

Q: And the “time up to which quantifiable in the plasma of all animals” value ([5]; both)?
A: The value was “at least 2 hours”.

Q: And the AUC(0-t) ([5]; female, 70 ug/kg)?
A: Its AUC(0-t) is 20.3 ng·h/mL.

Q: What about the Cmax ([5]; female, 70 ug/kg) of the same molecule?
A: The Cmax was 11.6 ng/mL.

Q: What about the AUC(0-t) ([5]; female, 70 ug/kg, AUC0-t) of the same molecule?
A: The AUC(0-t) was 18.5 ng·h/mL.

Q: What about the Cmax ([5]; female, 70 ug/kg, Cmax) of the same molecule?
A: Its Cmax is 19.5 ng/mL.

Q: And the AUC(0-t) ([5]; female, 140 ug/kg)?
A: Its AUC(0-t) is 52.3 ng·h/mL.

Q: What about the Cmax ([5]; female, 140 ug/kg) of the same molecule?
A: The Cmax was 34.5 ng/mL.

Q: And the AUC(0-t) ([5]; female, 140 ug/kg, AUC0-t)?
A: Its AUC(0-t) is 43.5 ng·h/mL.

Q: And the Cmax ([5]; female, 140 ug/kg, Cmax)?
A: Its Cmax is 42.3 ng/mL.

Q: What about the AUC(0-t) ([5]; female, 200 ug/kg) of the same molecule?
A: Its AUC(0-t) is 64.9 ng·h/mL.

Q: And the AUC(0-t) ([5]; female, 200 ug/kg, AUC0-t)?
A: The AUC(0-t) was 39.3 ng·h/mL.

Q: And the Cmax ([5]; female, 200 ug/kg, Cmax)?
A: Its Cmax is 59.8 ng/mL.

Q: What about the AUC(0-t) ([5]; male, 70 ug/kg) of the same molecule?
A: The AUC(0-t) was 8.14 ng·h/mL.

Q: What about the Cmax ([5]; male, 70 ug/kg) of the same molecule?
A: The Cmax was 8.41 ng/mL.

Q: What about the AUC(0-t) ([5]; male, 70 ug/kg, AUC0-t) of the same molecule?
A: Its AUC(0-t) is 8.33 ng·h/mL.

Q: And the Cmax ([5]; male, 70 ug/kg, Cmax)?
A: Its Cmax is 8.24 ng/mL.

Q: And the AUC(0-t) ([5]; male, 140 ug/kg)?
A: Its AUC(0-t) is 18.4 ng·h/mL.

Q: What about the Cmax ([5]; male, 140 ug/kg) of the same molecule?
A: Its Cmax is 18.6 ng/mL.

Q: And the AUC(0-t) ([5]; male, 140 ug/kg, AUC0-t)?
A: Its AUC(0-t) is 15.4 ng·h/mL.

Q: And the Cmax ([5]; male, 140 ug/kg, Cmax)?
A: Its Cmax is 23.5 ng/mL.

Q: What about the AUC(0-t) ([5]; male, 200 ug/kg) of the same molecule?
A: Its AUC(0-t) is 35.5 ng·h/mL.

Q: What about the AUC(0-t) ([5]; male, 200 ug/kg, AUC0-t) of the same molecule?
A: The AUC(0-t) was 22.9 ng·h/mL.

Q: What about the Cmax ([5]; male, 200 ug/kg, Cmax) of the same molecule?
A: The Cmax was 33.9 ng/mL.

Q: What about the “time up to which quantifiable in the plasma of all animals” value ([6]; both, beagle, iv, 1.25 mg/kg) of the same molecule?
A: Its value is “at least 12 hours”.

Q: And the “gender differences in systemic exposure (Cmax and AUC0-t)” value [6]?
A: Its value is “no significant gender differences”.

Q: What about the “differences in systemic exposure following single and repeat weekly IV administration” value ([6]; iv) of the same molecule?
A: The value was “no significant differences”.

Q: And the Cmax ([6]; female, Beagle, iv, 0.125 mg/kg)?
A: Its Cmax is 209 ng/mL.

Q: What about the Cmax ([6]; female, Beagle, iv, 0.6 mg/kg) of the same molecule?
A: The Cmax was 1190 ng/mL.

Q: And the AUC(0-t) ([6]; female, Beagle, iv, 1.25 mg/kg)?
A: Its AUC(0-t) is 2300 ng·h/mL.

Q: And the Cmax ([6]; female, Beagle, iv, 1.25 mg/kg)?
A: The Cmax was 2480 ng/mL.

Q: What about the AUC(0-t) ([6]; male, beagle, iv, 0.125 mg/kg) of the same molecule?
A: The AUC(0-t) was 211 ng·h/mL.

Q: What about the Cmax ([6]; male, beagle, iv, 0.125 mg/kg) of the same molecule?
A: Its Cmax is 197 ng/mL.

Q: And the AUC(0-t) ([6]; male, beagle, iv, 0.6 mg/kg)?
A: The AUC(0-t) was 1400 ng·h/mL.

Q: And the Cmax ([6]; male, beagle, iv, 0.6 mg/kg)?
A: The Cmax was 1140 ng/mL.

Q: And the AUC(0-t) ([6]; male, beagle, iv, 1.25 mg/kg)?
A: Its AUC(0-t) is 2510 ng·h/mL.

Q: And the Cmax ([6]; male, beagle, iv, 1.25 mg/kg)?
A: The Cmax was 2150 ng/mL.

Q: What about the half-life ([7]; both, beagle) of the same molecule?
A: Its half-life is 38.4 to 55.8 min.

Q: And the AUC(0-t) ([7]; female, Beagle, 0.125 mg/kg)?
A: The AUC(0-t) was 131 ng·h/mL.

Q: And the Cmax ([7]; female, Beagle, 0.125 mg/kg)?
A: The Cmax was 181 ng/mL.

Q: What about the AUC(0-t) ([7]; female, Beagle, 0.6 mg/kg) of the same molecule?
A: The AUC(0-t) was 1230 ng·h/mL.

Q: What about the Cmax ([7]; female, Beagle, 0.6 mg/kg) of the same molecule?
A: Its Cmax is 1330 ng/mL.

Q: And the AUC(0-t) ([7]; female, Beagle, 1.25 mg/kg)?
A: The AUC(0-t) was 2150 ng·h/mL.

Q: What about the Cmax ([7]; female, Beagle, 1.25 mg/kg) of the same molecule?
A: Its Cmax is 2460 ng/mL.

Q: What about the Vd ([7]; female, beagle) of the same molecule?
A: Its Vd is 0.534 to 0.855 L/kg.

Q: And the clearance ([7]; female, beagle)?
A: Its clearance is 8.2 to 16.4 mL/min/kg.

Q: What about the AUC(0-t) ([7]; female, beagle, 0.125 mg/kg) of the same molecule?
A: The AUC(0-t) was 178 ng·h/mL.

Q: What about the AUC(0-t) ([7]; female, beagle, 0.6 mg/kg) of the same molecule?
A: The AUC(0-t) was 1200 ng·h/mL.

Q: What about the Vd ([7]; male, beagle) of the same molecule?
A: Its Vd is 0.44 to 0.692 L/kg.

Q: And the clearance ([7]; male, beagle)?
A: Its clearance is 7.25 to 11.4 mL/min/kg.

Q: And the AUC(0-t) ([7]; male, beagle, 0.125 mg/kg)?
A: The AUC(0-t) was 181 ng·h/mL.

Q: What about the Cmax ([7]; male, beagle, 0.125 mg/kg) of the same molecule?
A: The Cmax was 308 ng/mL.

Q: And the AUC(0-t) ([7]; male, beagle, 0.6 mg/kg)?
A: Its AUC(0-t) is 1190 ng·h/mL.

Q: What about the Cmax ([7]; male, beagle, 0.6 mg/kg) of the same molecule?
A: The Cmax was 2100 ng/mL.

Q: And the AUC(0-t) ([7]; male, beagle, 1.25 mg/kg)?
A: The AUC(0-t) was 2600 ng·h/mL.

Q: And the Cmax ([7]; male, beagle, 1.25 mg/kg)?
A: Its Cmax is 2580 ng/mL.
